The source of these data is patent US20250032446A1, “METHODS AND COMPOSITIONS FOR THE BIOSYNTHESIS AND USE OF DEMETHYLATED POLYMETHOXY FLAVONES” (RUTGERS, THE STATE UNIVERSITY OF NEW JERSEY, priority 2021, published 2025).

≈ marks a conversion by molar mass, not a printed value. Entries after “also recorded” stand apart in the source; their conditions may differ.

Data set [1] can be described thus: Effect of pH of fermented media on extracted content of M2 and M3 (stability). The class given is physicochemical. Here is the method: Lastly, the fermented media was adjusted to pH 2.0, 5.0, 6.5, 7.0, 8.0 and 10.0 using HCl or NaOH. Subsequently, 3 extractions were conducted, and the sample was dried, weighed and analyzed using HPLC. The amount of extracted metabolites were compared and used to evaluate the effect of pH on extraction.

The subject of data set [2] is 3T3-L1 preadipocytes. Description: MTT assay, pre-confluent cell proliferation. The class given is cell-based, mouse. Here is the method: (§1) 3T3-L1 cells were purchased from American Type Culture Collection (ATCC, Rockville, MD) and maintained in MEME media with 10% FBS 1% penicillin/streptomycin (GIBCO, Paisley, UK) in a humidified atmosphere of 5% CO2 in air at 37° C. Cells were passaged by using 0.05% (vol) Trypsin and replated in 55-cm^2 dishes at a density of 1*10^4 cells/cm^2 until confluence.
(§2) For treatment, nobiletin and the mixture of 6- and 7-OH-nobiletin (M67N) in a 1:49 ratio were first dissolved in dimethyl sulphoxide (DMSO) to make stock solution (5 mM to 100 mM). (FIG. 20) The stock solution was then diluted by 1000 times with culture medium to designated concentrations. Cells cultured in full DMEM was set as negative control while cells treated with DM with 0.1% DMSO as positive control.
(§3) 3T3-L1 cells were seeded on 96-well plate at density of 1×10^4 cells/well and incubated overnight for cell attachment. For measuring pre-confluent cell proliferation, cells were cultivated for 36 hours and full MEME with or without nobiletin or M67N was used. For measuring post-confluent cell proliferation during first three days of differentiation, cells were switched to DM with different concentrations of nobiletin or M67N for 72 hours. At the end of each treatment, cells were washed with PBS three times. MTT ([…]) was added at concentration of 0.5 mg/mL to the cells. After a 3-hour incubation, the medium was decanted from each well and 150 μL DMSO was added to dissolve the formed formazan crystals on a shaker. When the crystal was completely dissolved, the absorbance at 570 nm was measured. Cell viability was interpreted as the percentage (%) of the readout of treated cells divided by that of control. Six repeats were carried out for each concentration.
(§4) 3T3-L1 cells were seeded on 96-well plate at density of 1×10^4 cells/well and were incubated overnight for cell attachment. For measuring pre-confluent cell proliferation, full MEME with or without nobiletin or 6-OH-nobiletin, or 7-OH-nobiletin was used and cells were cultivated for 36 hours. For measuring post-confluent cell proliferation during the first three days of differentiation, cells were treated after 2 days of confluence. Specifically, cells were switched to differentiation medium (DM) with different concentrations of targeted compounds for 24 hours. At the end of each treatment, cells were washed with PBS three times followed by the addition of 100 μL MTT at concentration of 0.5 mg/mL. After 3 hours' incubation, the medium in each well were decanted while 150 μL DMSO was added to dissolve the formed formazan crystals at a shaker. When the crystals were completely dissolved, the absorbance of at 590 nm was measured. Cell viability was interpreted as the percentage (%) of the readout of treated cells divided by that of control. Five repeats were carried out for each concentration.
On the technique in general: Tetrazolium dyes change colour on reduction, which living cells bring about.

Data set [3] deals with differentiating 3T3-L1 adipocytes. Description: Oil Red O staining, lipid accumulation. The class given is cell-based, mouse. The conditions noted are these: for effect on intracellular lipid accumulation: various concentrations, Oil Red O at day 8. Here is the method:
Two days after confluence, designated as day 0, adipocyte differentiation was initiated by culturing the cells for three days in differentiation medium (DM) which contained 10 μg/mL insulin, 0.5 mM IBMX, and 1 μM dexamethasone in complete culture medium. At day 3, the medium was replaced with DMEM, containing 10 μg/mL insulin. The medium was changed every two days until day 8. Cells were harvested on day 3 or day 8.
as §2
On day 8, cell layers were washed with 1×PBS and fixed with 10% paraformaldehyde (Sigma, St. Louis, MO, USA). After 15 minutes' fixation, the medium in each well was decanted and placed in a fume hood for complete dryness. Afterwards, cells were subjected to Oil Red O staining for 30 min, which was followed by immediate rinse in water. The intracellular lipid droplets were checked and pictures were captured on Olympus FSX100 Microscope. For the quantification of intracellular lipids, dyes were dissolved in 4% NP-40/isopropanol and the absorbance was measured at 520 nm by a microplate reader.

Data set [4] in a line: MTT assay, pre-confluent cell proliferation. It is filed as cell-based, mouse. The conditions noted are these: mouse, pre-confluent 3T3-L1 preadipocytes; 100 μM; read-out: cell viability reduced by. Here is the method: as §1, §2, §3, §4
Data set [5] is described as follows: Water solubility of nobiletin / nobiletin-HMS dispersion. It is filed as physicochemical. To be noted: 25 °C. Here is the method:
To check the water solubility of nobiletin in the nobiletin-HMS dispersion system, an excess of the media-milled nobiletin powder was dispersed into distilled water and agitated thoroughly for 24 hours at room temperature to reach full saturation.

Data set [6] can be described thus: Solubility of nobiletin in DMSO. It is filed as physicochemical. To be noted: organic solvent or mixture, read-out: maximal solubility in DMSO.
For data set [7], the system named is post-confluent 3T3-L1 cells. To be noted: 3T3-L1 preadipocytes; Hadrich & Sayadi, 2018; cited from earlier work.
For data set [8], the system named is 3T3-L1 cells. To be noted: 3T3-L1 preadipocytes; Hadrich & Sayadi, 2018; cited from earlier work.

For `COc1ccc(-c2cc(=O)c3c(OC)c(OC)c(O)c(OC)c3o2)cc1OC` [7-OH-nobiletin, 7-hydroxy-5,6,8,3′,4′-pentamethoxyflavone], the “total amount of extracted metabolite” value in data set [1] (fermented media at pH 2.0 (first of four values, pH 2.0 to 7.0)) worked out at 46.5 ± 1.3 µg/mL; in data set [1] (fermented media at pH 5.0 (second of four values)), 47.5 ± 1.9 µg/mL; in data set [1] (fermented media at pH 6.5 (third of four values)) it was 47.6 ± 0.7 µg/mL; in data set [1] (fermented media at pH 7.0 (fourth of four values)), 46.9 ± 1.5 µg/mL. Further, the “content of extracted metabolite” value in data set [1] (pH 8.0) stood at 39.2 ± 1.8 µg/mL; in data set [1] (pH 10.0), 11.7 ± 0.6 µg/mL. The “stability at alkaline condition” value in data set [1] (pH 8.0 and 10.0) is “not stable at alkaline condition”. Further, the “effect on cell proliferation” value in data set [2] (even at 100 μM) is listed as “did not present significant effect on cell proliferation”. The “effect on intracellular lipid accumulation” value in data set [3] is “obvious suppressive effect on intracellular lipid accumulation”.
By solubility is commonly meant the dissolved amount per volume that the medium holds. `COc1ccc(-c2cc(=O)c3c(OC)c(OC)c(OC)c(OC)c3o2)cc1OC` [Nobiletin, 5,6,7,8,3′,4′-hexamethoxyflavone, reference compound]: the cytotoxicity at 36 h, 100 μM in data set [4] turned out to be 50%. For the same molecule, the “inhibitory effect on the proliferation of preadipocytes” value in data set [2] (up to 75 μM) was “did not show any inhibitory effect; also recorded: did not demonstrated any inhibition effect”. For the same molecule, in data set [3] (15 μM, relative to positive control), the intracellular lipid content is on record as 101.254±6.096%. Also, the “lipid formation / accumulation reduced to” value in data set [3] (50 μM, relative to positive control) is 45.2±4.9%. The inhibition at 50 µM in data set [3] (Mus musculus, 3T3-L1, 50 μM, read-out: reduction of lipid formation / inhibition of lipid accumulation) came out at 50%. Further, the “effect on intracellular lipid accumulation” value in data set [3] is on record as “decreased the intracellular lipid content in a dose-dependent way; also recorded: obvious suppressive effect on intracellular lipid accumulation”. Besides, the solubility was 9.2 µg/mL (≈ 22.9 µM) in data set [5] and no more than 18000 µg/mL in data set [6].
As for `O=c1cc(-c2ccc(O)cc2)oc2cc(O[C@@H]3O[C@H](CO)[C@@H](O)[C@H](O)[C@H]3O)cc(O)c12` [apigetrin], the “decrease of cell viability” value in data set [7] was 50%. The cell cycle arrest entry in data set [8] is recorded as “arrest 3T3-L1 preadipocytes at G1 phase”.
